For experiment [1] the following is noted: cited from earlier work; for suppressing ACE-inhibitor induced cough: patients.
Experiment [2] deals with COVID-19. The experiment can be described thus: Anecdotal case of a subject with COVID-19 taking ASA. The experiment is classed as in vivo. The settings on record: one person; at least 0.4 g ASA orally on at least a few days of the approximately 14-day illness; also 80 mg famotidine daily.
Experiment [3] relates to COVID-19. Conditions: COVID-19 patients who had been taking famotidine; cited from earlier work.

SMILES strings stand for the structures. Read-outs that look alike come from different tables or passages of the source.

On to `CC(=O)Oc1ccccc1C(=O)O` [ASA, acetylsalicylic acid], for which, in experiment [1] (500 mg ASA daily), the “cough severity and cough frequency” value is “Significant reductions”; the “patients with cough completely abolished” value is “five of 14”; the “patients with cough significantly reduced” value is given as 13 of 14. Also, the “suppressing ACE-inhibitor induced cough” value in experiment [1] (intermediate dose, 500 mg ASA daily) was “extremely effective”. Further, in experiment [1] (low dose, 100 mg ASA daily), the “suppressing ACE-inhibitor induced cough” value is recorded as “ineffective”. In experiment [2], the “common respiratory symptoms and effects of COVID-19 (shortness of breath, cough)” value was “none of the common respiratory symptoms and effects of COVID-19”.
As for `NC(N)=Nc1nc(CSCCC(N)=NS(N)(=O)=O)cs1` [famotidine], in experiment [3], the “clinical outcomes (intubations, deaths, symptoms) vs patients not taking famotidine” value is “better outcomes”.

Source of the values: US20220105109A1, “METHODS OF TREATING COVID-19 AND COMPOSITIONS THEREFOR” (priority 2020, published 2022).
